Data on three compounds can be found in patent US20240108003A1, “COMPOSITIONS AND METHODS FOR IMPROVING PLANT PERFORMANCE” (Advanced Crop Chemistry, priority 2022, published 2024).

Data set [1] deals with Zymoseptoria tritici (Septotia tritici). Put plainly: Growth of fungal plant pathogen on amended potato dextrose agar (colony surface area). The data set is classed as cell-based. Conditions: 0.5 g/L in buffered PDA pH 6.2, 10 days, darkness, 68° F. As for the experimental part: Zymoseptoria tritici (Septotia tritici) was grown in petri dishes on buffered (pH 6.2) potato dextrose agar (PDA), amended with penicillin (100 mg/L) and streptomycin (100 mg/L) as well as 2HOP (0.5 g/L) or […]). Five replicate plates/treatments were used and the cultures were grown for 10 days in darkness at 68° F. At the end of the 10-day period, the cultures were assessed in terms of the total surface area of growth of the colonies.

The subject of data set [2] is Pepper and tomato plants. Put plainly: Leaf numbers, leaf area and dry weight of greenhouse-grown tomato and pepper. Conditions: foliar 1 g/L or 0.5 g+0.5 g/L, assessed at eight weeks. The data set is classed as in vivo. As for the experimental part: Pepper and tomato plants were grown from seedlings for eight weeks in a greenhouse with ambient light at a constant 75° F. temperature. All plants received a standard fertigation treatment. Plants were destructively assessed at eight weeks. Each treatment had 20 single-plant replicates. Plants were treated with foliar applications of 2HOP (1 g/L water), […] water), or […] water). Each plant received approximately 50 ml of spray solution (sprayed to drip). All treatments included a wetting agent (polyalkyl glucoside) at 0.025% v/v addition. Plants received a light, cover spray at week 4. Plants were assessed in terms of leaf number per plant, leaf area/plant, and total dry weight/plant. In addition, at harvest, a composite leaf sample (10 leaves/plant, 200 leaves total) from each tomato treatment was collected, pooled with the other replicates, and assessed for elemental content which is presented in Table 18.

The test system of data set [3] is oat seedlings. Put plainly: Nitrate uptake rate of hydroponic oat seedlings. The data set is classed as in vivo. To be noted: first four hours of treatment. The protocol: Oat seedlings were either treated or untreated and their rates of nitrogen uptake were measured. Oat seedlings were hydroponically grown in a greenhouse under ambient light at 75° F. with a complete standard soluble nutrient solution. They were acclimated to constant light, then deprived of nitrogen for a period, and then their nitrogen (nitrate) was replenished with or without 2HOP in the nutrient solution. The plant root systems were submerged in the appropriate solutions and the plants were allowed to grow and take up nitrate. The depletion of nitrate from the solution was measured every four hours to determine the rate of nitrate uptake by the plants.

Data set [4] concerns lettuce plants. Description: Foliar treatment of lettuce plants, tissue aromatic amino acids. The data set is classed as in vivo. To be noted: 0.5 g/L. An excerpt:
This is further supported by the data in Table 4 where foliar treatment of lettuce plants with […]) or 2HOP (0.5 g/L) increased the tissue levels of aromatic amino acids which are synthesized in the Shikimic acid pathway, a pathway that has a known role in modulation of plant innate tolerance to abiotic and biotic stresses such as disease.

Data set [5] relates to Wheat seeds (Skyfall variety). Description: Seed treatment, field grown wheat emergence and yield. In kind it is in vivo. The text has this:
The treatments were pre-diluted in an equivalent of 2 liters of water and applied to one ton of seed. The seeds were planted in the fall at a rate of 200 kg/ha.

For data set [6], the system named is Peace Lily (Spathiphyllum). Put plainly: Cold tolerance in a cold sensitive plant. Conditions: foliar 1 g/L; 4 days of 34-35° F. for 5-6 hours/day one week after treatment. The data set is classed as in vivo. The protocol:
The popular ornamental plant, the “Peace Lily”, is in the genus Spathiphyllum and all species are indigenous to the tropics. […] Three groups of containerized plants (in 6-inch pots, growing in a standard potting media) were established, and foliarly treated with 1 g/L 2HOP or LPGA. A surfactant (polyalkyl glucoside) at 0.25% v/v was added to both treatments to improve leaf coverage. Plants were treated and one week later were exposed 4 days to a diurnal regime of low temperatures (34° F. to 35° F.) for at least 5-6 hours/day and a high temperature of 55° F. to 57° F. for the remainder of the day. Plants were under a natural light regime. […] See Table 10 in FIG. 7A and FIG. 7B.

The subject of data set [7] is oat seedlings. Description: Proline accumulation in oat seedlings. In kind it is in vivo. To be noted: weekly foliar 100 micromolar, 3 weeks; untreated undetectable. The protocol:
Sets of oat seedlings were grown and either treated or not treated with 2-hydroxy-5-oxoproline. The plants were grown in a greenhouse at 75° F. with ambient light and provided a standard complete nutrient plant food. Weekly foliar treatments were applied with 100 micromolar 2HOP began at the two-true leaf stage and continued for 3 weeks. Leaves from 20 plants were sampled and the free pools of proline were measured.

The test system of data set [8] is oat seedlings. Description: Soil application, carbon fixation capability in greenhouse grown oats. To be noted: soil drench 75 nanomoles daily; for increase of CO2 fixation compared to the untreated: plants 28 days old. In kind it is in vivo. The protocol:
Sets (replicates) of oat seedlings were treated with 2HOP, L-PGA, or left untreated. Seeds were planted in standard potting soil in a greenhouse at a constant 75° F. under natural light, supplied a standard liquid nutrient solution, and treated daily with 75 nanomoles of either 2HOP or L-PGA beginning 14 days after seedling emergence. The treatments were applied as a soil drench. The CO2 fixation rates were measured when plants were 28 days old. The ribulose bisphosphate carboxylase (RUBISCO) activation state was measured when plants were 26 days old. The rates for 20 plants were averaged for each set of plants. […] L-PGA increased CO2 fixation compared to the untreated by 21%. However, when 2HOP is compared to L-PGA in terms of CO2 fixation, 2HOP fixed CO2 at over an 11% higher rate (see Table 14).

The test system of data set [9] is oat seedlings. Description: Leaf protein content of oat seedlings. Conditions: three weekly foliar treatments 100 micromolar. The data set is classed as in vivo. As for the experimental part:
Sets of oat seedlings were treated or untreated with 2HOP and the total foliar protein content was compared. Seedlings were greenhouse-grown at 75° F. under ambient light and provided a standard complete nutrient. The seedlings were given three weekly foliar treatments with 2HOP (100 micromolar) beginning at the two-true leaf stage.

For data set [10], the system named is Wheat (Winter White). Description: Herbicide phytotoxicity on greenhouse wheat with and without 2HOP or L-PGA. The data set is classed as in vivo. Conditions: for phytotoxic impact of herbicides on wheat: combined with herbicides, foliar, assessed 10 days after application; for canopy biomass compared to the untreated: solo applications, 10 days post-treatment, visual. As for the experimental part:
Wheat (Winter White) seeds (5 g) were sown in a 1-gallon pot in a greenhouse under natural light with a diurnal temperature range of 75° F. to 90° F. Various herbicides were applied alone or in combinations with L-PGA or 2HOP. Materials were applied at the equivalent rate of 100 L water/Ha with 0.25% v/v polyalkyl glucoside added as a wetting agent. There were 4 replicates per treatment, with 1 pot/replicate. 10 days after sowing, plants received a light cover spray at an equivalent application volume of 25 gallons/acre. Plants were destructively assessed 10 days later by measuring the total above-ground biomass of each replicate.

A short description of data set [11]: physchem. Conditions: aqueous solutions.
In data set [12] the test system is Hard Red Wheat seeds (variety Glenn). Put plainly: Seed treatment, greenhouse-grown wheat leaf emergence. The data set is classed as in vivo. Conditions: greenhouse 65° F. As for the experimental part:
The treatments were pre-diluted in an equivalent of 2 liters of water and applied to one ton of seed. The seeds were planted in a 30 cm×30 cm flat tray at 1 seed/cm^2 in a naturally illuminated greenhouse maintained at 65° F. See Table 19 in FIG. 14.

In data set [13] the test system is leaf lettuce seedlings. Put plainly: Dry weight and carbon fixation capability in lettuce. In kind it is in vivo. Conditions: weekly foliar 100 micromolar. As for the experimental part: Sets (replicates) of leaf lettuce seedlings were treated with 2HOP or left untreated. Seedlings were grown in a greenhouse (75° F.) with ambient light, supplied with a standard liquid nutrient solution. The treated plants received weekly foliar sprays containing 100 micromolar 2HOP. Each replicate contained 20 plants in a tray. All plants were assessed for each prescribed parameter. For all parameter values vs control p=<0.05. RUBISCO is ribulose bisphosphate carboxylase, the major carbon-fixing enzyme.

Data set [14] deals with Grapevines. Put plainly: Yield from grapevines grown in nematode infested soil. In kind it is in vivo, grapevine. To be noted: L-PGA root drench 1 g/L, Nemacur 7.5 ml/vine, vs untreated vines. As for the experimental part: (§1) Grapevines were treated with L-PGA alone or in combination with Nemacur® at two sites in California. […] Vines at both sites were 6 years old and replanted into sandy soil (CEC <7 meq/100 g soil) previously planted with vines. […] Site 2 was in Fresno County (var: Thompson seedless) and at this site several parasitic nematode species were in evidence (Table 8). Several treatments were undertaken as per Tables 6 & 7. Untreated vines received the standard grower cultural management programs. At both sites the plants were ungrafted. At Site 1, soil levels of nematodes were assessed prior to the onset of treatments and at various times throughout the trial (as given in Table 7). Plants were treated in the spring, summer, and fall and assessed 12, 13, 15 and, 24 months later at Site 1. Yield data were collected at both sites. Site 1 was treated for two seasons and yield was collected over two seasons. At Site 2, yields were collected and soil nematode levels were assessed 18 months after the onset of the treatments. Site 2 was only treated for one season and only one crop year was assessed.

Data set [15] has as its system plant parasitic nematode. Description: Soil plant parasitic nematode populations, grapevines, Site 2. Conditions: Site 2, L-PGA combined with Nemacur. The data set is classed as in vivo, nematodes. The protocol: L-PGA was applied by drenching the roots with a solution (5 liters per plant) containing 1 g/L L-PGA. Nemacur® 400ec was applied as a labelled commercial treatment to specific rows at the trial locations by injection through the micro irrigation system (7.5 ml/vine). Each treatment comprised 20 vines in five replicate blocks (4 vines/replicate). […] Several treatments were undertaken as per Tables 6 & 7. Untreated vines received the standard grower cultural management programs. At both sites the plants were ungrafted. […] Yield data were collected at both sites.

Data set [16] has as its system Root Knot nematode (Meloidogyne incognita, M. javanica, M. arenaria, and M. hapla). Description: Soil Root Knot nematode populations, grapevines, Site 1. The data set is classed as in vivo. To be noted: Site 1, after 15 months. As for the experimental part:
as §1

Data set [17] relates to free-living (beneficial nematodes). Conditions: in vivo. As for the experimental part: as §1
Data set [18] concerns Fusarium graminearum Schwabe Group 2. The data set is classed as in vivo, Fusarium graminearum on wheat. Conditions: foliar applications to infected wheat; ELISA on pooled grain. (In general: In an ELISA, binding on a coated surface is turned into a signal by an enzyme label.)

Values after ≈ are worked out from the molar mass of the structure shown.

One may read the solubility as the concentration that dissolves in the medium under given conditions. Regarding `O=C1CC[C@@](O)(C(=O)O)N1` [2HOP, 2-hydroxy-5-oxoproline], the “direct suppression of fungal growth (total surface area of colonies)” value in data set [1] is “no direct suppression of fungal growth”. The “number of leaves, leaf area, and total dry weight” value in [2] was “greatest increases”. Also, in data set [3], the “rate of nitrate uptake relative to untreated counterparts” value is listed as “approximately double”. For the same compound, the “rate of nitrate uptake” value in data set [3] (untreated 5.8) is 11.5 umol/gfwt/h. The “tissue levels of aromatic amino acids” value in data set [4] was “increased”. Also, the “wheat yield compared to the untreated plots” value in data set [5] is given as “increased”. The “cold damage compared with untreated plants” value in [6] is “less cold damage”. Moreover, the “free proline pools in leaves” value in data set [7] is on record as 2.6 micromol/g fwt. In data set [8] (higher rate than L-PGA), the “CO2 fixation rate, 2HOP compared to L-PGA” value is recorded as more than 11%. Besides, in data set [8] (plants 26 days old), the “increase of RUBISCO activation” value is 48%. The “increase of CO2 fixation compared to the untreated” value in data set [8] came out at 34%. In [9], the “total foliar fresh weight, % of the control plants” value came to 183%; the “total foliar protein, % of untreated control plants” value came to 252%; the “total protein in the foliar parts, % of untreated control plants” value is 252%. Moreover, the foliar protein concentration in [9] (control 6.0) is 8.8 mg/g fresh weight. In addition, in data set [10], the “phytotoxic impact of herbicides on wheat” value is recorded as “suppression of the phytotoxic impact” and the “canopy biomass compared to the untreated” value is recorded as “visual increase in canopy biomass”. This compound also gave a solubility in data set [11] of 145 to 435 mg/mL (≈ 999 to 3000 mM). Moreover, the “leaf emergence compared to the untreated group” value in data set [12] was “increased”. In addition, in data set [13], the “elevation of CO2 fixation” value is listed as more than 50% and the “elevation of RUBISCO activation” value turned out to be 129%. Besides, in data set [13] (average across all biomass parameters), the elevation of biomass was determined as 34%.
For `O=C1CC[C@@H](C(=O)O)N1` [L-PGA, L-pyroglutamate], the “direct suppression of fungal growth (total surface area of colonies)” value in data set [1] was “no direct suppression of fungal growth”. Besides, the yield of grapevines result in data set [14] is listed as “elevated yield”. Besides, in data set [15], the “efficacy of Nemacur in soil plant parasitic nematode population suppression” value was “increased the efficacy”. Moreover, in data set [4], the “tissue levels of aromatic amino acids” value is listed as “increased”. For the same compound, the “wheat yield compared to the untreated plots” value in [5] was “increased”. For the same compound, the “cold damage compared with untreated plants” value in [6] is on record as “less cold damage”. Also, in data set [8], the “increase of CO2 fixation compared to the untreated” value was determined as 21%. Further, in [16], the “soil Root Knot nematode populations” value is “reduced”. Besides, in data set [10], the “phytotoxic impact of herbicides on wheat” value is “suppression of the phytotoxic impact” and the “canopy biomass compared to the untreated” value is on record as “visual increase in canopy biomass”. Also, the “effect on free-living (beneficial nematodes)” value in data set [17] is recorded as “minimal effect”. Further, in data set [12], the “increase of emergence versus the untreated” value came out at 19% and the “leaf emergence compared to the untreated group” value is reported as “increased”.
calcium phosphite: the DON grain levels result in data set [18] is recorded as “largest reduction”.
